From ChEMBL document CHEMBL4411258, “Novel natural compounds from endophytic fungi with anticancer activity” (Eur J Med Chem, 2018) come the findings set out here.

Data set [1] has as its system HCT-116. Description: Cytotoxicity against human HCT116 cells after 48 hrs by sulforhodamine B assay. The conditions noted are these: HCT-116, 48 h. In kind it is functional, cell-based. Background: The SRB assay estimates cell density from bound dye.
Data set [2] has as its system NCI-H460. Description: Cytotoxicity against human NCI-H460 cells after 48 hrs by sulforhodamine B assay. The data set is classed as functional, cell-based. The note with it: Homo sapiens, NCI-H460, 48 h.
For data set [3], the system named is MCF7. Description: Cytotoxicity against human MCF7 cells after 48 hrs by sulforhodamine B assay. In kind it is functional, cell-based. The conditions noted are these: Homo sapiens, MCF7, 48 h.
The test system of data set [4] is MOLT-3. The data set can be described thus: Cytotoxicity against human MOLT3 cells by XTT assay. In kind it is functional, cell-based. (In general: Tetrazolium assays rely on reduction of a dye to a coloured formazan, in cell work by metabolically active cells.)
In data set [5] the test system is HL-60. Description: Cytotoxicity against human HL60 cells by XTT assay. In kind it is functional, cell-based.
For data set [6], the system named is HL-60. Description: Cytotoxicity against human HL60 cells. In kind it is functional, cell-based.
In data set [7] the test system is HCT-15. The data set can be described thus: Cytotoxicity against human HCT15 cells by MTT assay. In kind it is functional, cell-based.
The subject of data set [8] is MCF7. Description: Cytotoxicity against human MCF7 cells by MTT assay. The data set is classed as functional, cell-based.
The subject of data set [9] is U-251. The data set can be described thus: Cytotoxicity against human U251 cells by MTT assay. The data set is classed as functional, cell-based.
Data set [10] has as its system SK-LU-1. Description: Cytotoxicity against human SKLU1 cells by MTT assay. The data set is classed as functional, cell-based.
Data set [11] relates to PC-3. Description: Cytotoxicity against human PC3 cells by MTT assay. In kind it is functional, cell-based.
Data set [12] relates to A549. Description: Cytotoxicity against human A549 cells. The data set is classed as functional, cell-based.
Data set [13] has as its system HCT-116. The data set can be described thus: Cytotoxicity against human HCT116 cells. In kind it is functional, cell-based.
Data set [14] relates to HeLa. Description: Cytotoxicity against human HeLa cells. The data set is classed as functional, cell-based.
Data set [15] is described as follows: Antiproliferative activity against HUVEC assessed as growth inhibition. The note with it: human, HUVEC cells. In kind it is cell-based.
Data set [16] concerns K562. Description: Antiproliferative activity against human K562 assessed as growth inhibition. The data set is classed as functional.
The subject of data set [17] is OVCAR-3. The data set can be described thus: Cytotoxicity against human OVCAR3 cells assessed as reduction in cell viability after 72 hrs by CyQuant dye-based assay. In kind it is functional. The conditions noted are these: OVCAR-3, 72 h.
Data set [18] relates to KB. Description: Cytotoxicity against human KB cells by resazurin microplate assay. In kind it is functional, cell-based. (In general: Resazurin is reduced to fluorescent resorufin, in cell work by metabolically active cells.)
Data set [19] has as its system NCI-H187. Description: Cytotoxicity against human NCI-H187 cells by resazurin microplate assay. The data set is classed as functional, cell-based.
Data set [20] concerns MMQ. Description: Cytotoxicity against rat MMQ cells by MTT assay. The data set is classed as functional, cell-based.
The subject of data set [21] is GH3. The data set can be described thus: Cytotoxicity against rat GH3 cells by MTT assay. In kind it is functional, cell-based.
For data set [22], the system named is MIA PaCa-2. The data set can be described thus: Cytotoxicity against human MIAPaCa2 cells after 48 hrs by MTT assay. In kind it is functional, cell-based. The conditions noted are these: MIA PaCa-2, 48 h.
In data set [23] the test system is HepG2. The data set can be described thus: Cytotoxicity against human HepG2 cells after 48 hrs by MTT assay. The data set is classed as functional, cell-based. The note with it: HepG2, 48 h.
In data set [24] the test system is HCT-116. Description: Cytotoxicity against human HCT116 cells after 48 hrs by MTT assay. The data set is classed as functional, cell-based. The conditions noted are these: HCT-116, 48 h.
Data set [25] has as its system A549. Description: Cytotoxicity against human A549 cells after 48 hrs by MTT assay. The conditions noted are these: Homo sapiens, A549, 48 h; read-out: IC50. In kind it is functional, cell-based.
The subject of data set [26] is U2OS. The data set can be described thus: Cytotoxicity against human U2OS cells by MTT assay. The data set is classed as functional, cell-based.
For data set [27], the system named is HeLa. Description: Cytotoxicity against human HeLa cells after 48 hrs by sulforhodamine B assay. In kind it is functional, cell-based.

≈ marks a conversion by molar mass, not a printed value.

Turning to `C/C=C/[C@@H]1OC(=O)C2=C[C@H](O)[C@@H](/C=C/C)O[C@H]21`, the results for the half-maximal inhibitory concentration (IC50) in [1], in data set [2] and in data set [3] were 6.2 µM, 1 µM and 22.5 µM, respectively.

Consider `CC1(C)CC[C@@H](O)[C@](C)(O)[C@@]12CC=C(C=O)CC2`, for which the IC50 – broadly, the point on the concentration scale where inhibition reaches its midpoint – is 165 µM in data set [4] and 159 µM in data set [5].

`COc1cc2c(c3c1Cc1c(cc(O)c(CO)c1C(=O)O)O3)C[C@H]1[C@H](C)CO[C@@]1(C)O2` registered a concentration for half-maximal inhibition (IC50) in [6] of 12.4 µM.

As for `COC(=O)[C@@]12Oc3c(c(O)cc4c3[C@@H]3CC[C@]5(C4)C(=C(O)c4c(O)cc(C)cc4[C@@H]5O)C3=O)C(=O)C1=C(O)C=C[C@H]2O`, the IC50 in data set [7] was found to be 10.3 µM; in data set [8] it was 7.93 µM; in data set [9], 5.32 µM; in [10], 1.16 µM; in data set [11], 8.62 µM.

With `COC(=O)CC[C@@H](C(=O)OC/C=C(\C)CC/C=C(\C)CCC=C(C)C)N1Cc2c(cc(O)c(OC/C=C(\C)CC/C=C(\C)CCC=C(C)C)c2O)C1=O`, the concentration for half-maximal inhibition (IC50) was found to be 12 µM in data set [12], 33 µM in [13] and 4.77 µM in data set [14].

Take `O=C1c2cccc(O)c2[C@H]2C[C@@H]1c1ccc3cccc(O)c3c1O2`: the GI50 (commonly the concentration giving 50% growth inhibition) in data set [15] was found to be 98.4 µM; in data set [16], 85.5 µM.

On to `CC1=CC[C@H]2C(C)(C)CCC[C@]2(C)[C@H]1C[C@@]12O[C@@H]1C(=O)C(CO)=C[C@H]2O`, for which, in data set [17], the IC50 turned out to be 0.5 µM.

`COc1cc2oc(C)cc(=O)c2c(O)c1CC(C)c1ccco1` (stereo not drawn): the IC50 stood at 43 µg/mL (≈ 137 µM) in data set [18] and 18 µg/mL (≈ 57.3 µM) in data set [19].

On to `Cc1cc(O)cc2c1Oc1c(Cc3ccc(O)cc3)c(O)cc(C)c1C(=O)O2`, for which the 50% inhibitory concentration (IC50) in [20] is 3.09 µM; in data set [21], 3.64 µM.

Consider `CCCCC/C=C1/C(=O)OC(=O)[C@@H]1C`, for which, in data set [22], the IC50 came out at 16 µM.

`COc1c(OC)c2c(c(OC)c1-c1c[nH]c3ccccc13)O[C@@H]1Nc3ccccc3[C@]21OC`: the values for the IC50 in [23], in [24] and in [25] were 2.5 µg/mL (≈ 5.62 µM), 6.4 µg/mL (≈ 14.4 µM) and 3.5 µg/mL (≈ 7.87 µM), respectively.

In the case of `Cc1cc(O)c(C(=O)c2cc(O)cc(O)c2C=O)c(O)c1`, the half-inhibitory concentration (IC50) amounted to 16.8 µM in data set [8] and 11.6 µM in data set [26].

Take `C/C=C/[C@@H]1[C@@H]2C[C@@H](C)CC[C@@H]2[C@](C)(O)[C@@H]2Oc3c(-c4ccc(O)cc4)c[nH]c(=O)c3C(=O)[C@@H]12`: in data set [27], the IC50 was 8.8 µM.
